The results in this text go back to PubChem BioAssay (NCI).

Holding throughout (experiment): NCI anticancer screen, dose series, 48 h
The test system of test [1] is CAKI-1 renal.
In test [2] the test system is KM12 colon.
Test [3] relates to M14 melanoma.
For test [4], the system named is NCI-H23 lung.
Test [5] deals with NCI-H522 lung.
The subject of test [6] is SF-268 CNS.
Test [7] has as its system SK-OV-3 ovarian.
Test [8] relates to UACC-62 melanoma.
In test [9] the test system is DU-145 prostate.

SMILES strings stand for the structures.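 Compound exposure: 48 hours, 5 concentrations, 96-well plates. GI50 marks 50% less growth. The concentration for full growth arrest is given as TGI.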

Take `N=C(c1ccccc1)N(O)C1CCCCC1`: the TGI in test [1], in [2], in test [3], in test [4], in test [5] and in test [6] was > 100 µM throughout.

With `CC(=O)OC1CCn2nnc(COC(=O)NC(C)C)c21` (stereo not given), the TGI in [1], in test [2], in [3], in [4], in test [5] and in test [7] was > 100 µM in each case. The TGI in test [8] is > 100 µM.

Regarding `Cc1c(C(=O)/C=C/c2ccc(Cl)cc2)[n+](=O)c2ccccc2n1[O-]`, the TGI amounted to 31.6 µM in [1]; 22.7 µM in test [2]; 31.5 µM in [3]; 22.2 µM in [4]; 17 µM in [5]; 28.6 µM in [6]. In addition, the TGI in [7] amounted to 47.6 µM; in test [8] it was 26.8 µM.

Consider `Cc1ccccc1C(=O)Oc1ccc(Oc2ccccc2)cc1`, for which the TGI in test [1], in test [2], in [3], in [4], in test [6] and in [7] was > 100 µM each time. In addition, the TGI in test [8] is > 100 µM.

For `N#Cc1ccccc1C#C/C=C\C#Cc1ccc(OCCCNC(=O)c2cc3ccccc3[nH]2)cc1`, the GI50 was 20.2 µM in [1]; 19.4 µM in [9]; 16.3 µM in test [2]; 21.8 µM in test [3]; 24.2 µM in test [4]; 13.9 µM in test [5]. The GI50 in test [6] is 30.6 µM; in test [7], 19.3 µM; in test [8], 13.7 µM. Moreover, the TGI in test [1] was 48 µM; in test [9], 78.9 µM; in [2] it was 44.2 µM; in [3], > 100 µM; in [4], 98.2 µM; in test [5], 32.3 µM. Also, the TGI in test [6] was > 100 µM; in test [7], 54.5 µM; in test [8], 28.4 µM.

Take `N=C(N)SCCc1cn2ccccc2n1`: the TGI in test [1], in [2], in test [3], in [4], in test [5] and in [6] was > 100 µM throughout.

Consider `Cn1c(CCC#N)nc2ccc(Br)cc2c1=O`, for which the TGI in [1], in test [2], in test [3], in [4], in test [5] and in test [6] was > 100 µM throughout. In addition, the TGI in test [7] and in [8] was > 100 µM throughout.

As to `CN(C)CCn1c2ccccc2c2nc3cc4ccccc4cc3nc21`, the TGI in test [1] was found to be 20 µM; in [2], 16.8 µM; in test [3], 16.4 µM; in test [4], 24 µM; in [5], 21.7 µM; in test [6], 6.26 µM. Also, the TGI turned out to be 23.4 µM in [7] and 21.1 µM in test [8].

In the case of `O=C(CCC(=O)Nc1ccc(Cl)cc1)CC(=O)c1ccc(F)cc1`, the TGI in test [1], in test [2], in [3], in test [4], in test [5] and in test [6] was > 100 µM each time. Moreover, the TGI in [7] and in test [8] was > 100 µM in each case.

For `O=c1[nH]c(Br)nc2c(Br)c[nH]c12`, the TGI in test [1], in test [2], in test [3], in [4], in test [5] and in test [6] was > 100 µM in each case. For the same compound, the TGI in test [7] and in test [8] was > 100 µM throughout.

With `Cc1ccc(C)c(NC(=O)c2cc(-c3ccc([N+](=O)[O-])cc3)nc(N)n2)c1`, the TGI in [1], in test [2], in test [3], in test [4], in test [5] and in test [6] was > 100 µM throughout. Besides, the TGI in test [7] and in test [8] was > 100 µM each time.

`Cc1ccc(NC(=O)/C(CC(=O)c2c[n+](=O)c3ccccc3n2O)=N\NC(=O)C[n+]2ccccc2)cc1`: the TGI in test [1], in test [2], in test [3], in [5], in [6] and in test [7] was > 100 µM each time. In addition, the TGI in test [8] is > 100 µM.

`O=c1/c(=C/c2ccc(Cl)cc2Cl)sc2nc3ccccc3n12`: the TGI in test [1], in [2], in test [3], in test [4], in [5] and in test [6] was > 100 µM in each case. Besides, the TGI in test [7] and in test [8] was > 100 µM in each case.

Regarding `C=C1CC(CCCl)(c2ccccc2)OC1=O` (stereo not given), the TGI in test [2] is > 100 µM; in test [3], 38.6 µM; in test [4] it was > 100 µM; in [5], 33.2 µM; in test [6], > 90.5 µM; in test [7], > 100 µM. The TGI in test [8] was > 100 µM.

Take `CCCCCCCCCCCCCCCC(=O)OCC(O)C1OC(=O)C(O)=C1O` (stereo not given): the TGI in [1] is 96.6 µM; in [9], > 100 µM; in test [2] it was 53 µM; in [3], 36.2 µM; in test [4], 96.3 µM; in test [5], > 100 µM. Further, the TGI in test [6] was 60.4 µM; in test [7] it was > 100 µM; in test [8], 75 µM.

As to `CC(C)C(=O)N[C@@H](C)C(=O)N(Cc1ccc2ccccc2c1)N=O`, the TGI in test [1], in test [3], in [6], in test [7] and in test [8] was > 100 µM throughout.

Consider `O=Cc1ccc(-c2ccc(-c3ccc(C=O)s3)o2)s1`, for which the TGI in [1] was 1.31 µM; in test [9] it was > 100 µM; in [2], > 100 µM; in test [3], > 100 µM; in [4], > 100 µM; in test [5], 29.5 µM. For the same compound, the TGI in test [6] was > 100 µM; in [7] it was > 100 µM; in test [8] it was 0.441 µM.

As to `O=c1c2ccc3cccc4c(=O)cc(c5ccccc15)-c2c34`, the TGI in test [1], in test [2], in test [3], in test [4], in [5] and in [6] was > 100 µM in each case. Moreover, the TGI in test [7] and in test [8] was > 100 µM throughout.

For the compound `Nc1ccc(Nc2nc(F)nc(-c3c4ccccc4c4n3CCS4)n2)cc1`, the TGI in test [1] came to 23.6 µM; in test [2], 26.5 µM; in [3], 31.6 µM; in test [4], 32.7 µM; in test [5] it was 28.6 µM; in [6], 37.1 µM. Further, the TGI in [7] came out at 31.1 µM.

In the case of `CC(=O)N1CC2Nc3ccccc3C2CC1CO` (stereo not given), the TGI in test [1], in test [2], in test [3], in test [4], in test [5] and in [6] was > 100 µM each time. The TGI in test [7] and in test [8] was > 100 µM throughout.

With `COc1ccc(C(c2ccc(C(C)C)cc(=O)c2O)c2c(O)cc3oc(-c4ccccc4)cc(=O)c3c2O)cc1` (stereo not given), the TGI is 36.3 µM in [1]; 22.2 µM in test [3]; 55.7 µM in [4]; 55.4 µM in test [7]; 42.9 µM in test [8].

`C(=C\c1csnn1)/c1cccnc1`: the TGI in test [2], in [3], in [4], in test [5], in test [6] and in [7] was > 100 µM throughout.

`O=C(O)/C(=C/c1ccccc1[N+](=O)[O-])c1ccccc1`: the TGI in test [1], in test [2], in [3], in test [4], in test [5] and in [6] was > 100 µM in each case. The TGI in [7] and in test [8] was > 100 µM in each case.

For the compound `CC(=O)OC12c3ccccc3C1CCCCCC21OCCCO1` (stereo not given), the TGI in test [1], in test [2], in test [3], in test [4], in test [5] and in test [6] was > 100 µM in each case. In addition, the TGI in [7] and in test [8] was > 100 µM each time.

On to `O=c1cc(Cl)nc[nH]1`, for which the TGI in test [1], in test [2], in [3], in test [4], in [5] and in test [6] was > 100 µM each time. Besides, the TGI in test [7] and in test [8] was > 100 µM throughout.

In the case of `CCC[CH2][Sn]([CH2]CCC)([O]C(=O)c1cccc(F)c1)[O]C(=O)c1cccc(F)c1`, the GI50 is 0.369 µM in test [1]; 1.29 µM in test [2]; 1.34 µM in test [3]; 0.329 µM in test [4]; 0.246 µM in [5]; 1.16 µM in test [6]. The GI50 in test [7] was 1.84 µM; in test [8] it was 0.719 µM. In addition, the TGI in [1] is 1.43 µM; in test [2] it was 2.79 µM; in [3], 2.88 µM; in test [4], 1.57 µM; in test [5], 0.91 µM; in [6] it was 2.53 µM. Further, the TGI was determined as 3.45 µM in test [7] and 2.09 µM in [8].

With `O=C(Nc1c(-c2nc3ccccc3[nH]2)sc(=S)n1-c1ccccc1)c1ccccc1`, the TGI in test [1], in test [2], in test [3], in test [4], in test [5] and in test [6] was > 100 µM each time. Further, the TGI in test [7] and in test [8] was > 100 µM in each case.

As to `O=c1ccccc2cccc(O)c12`, the TGI in test [1], in [3], in [4], in test [7] and in test [8] was > 100 µM in each case.

Regarding `Cc1cc(NS(=O)(=O)c2ccc(NC(=O)c3cccc4c(N)c5ccccc5nc34)cc2)no1`, the TGI in test [1] turned out to be 80.4 µM; in [2], 58.3 µM; in test [3] it was 54 µM; in test [4], 52.2 µM; in test [5] it was 33.9 µM; in test [6] it was 76.9 µM. Moreover, the TGI is 75.5 µM in test [7] and 57.7 µM in [8].

Regarding `COc1ccc2c3c1C(=O)CCC3CO2` (stereo not given), the TGI in test [1], in test [2], in [3], in [4], in [5] and in [6] was > 100 µM in each case. The TGI in test [7] and in [8] was > 100 µM each time.

Consider `CCCNCc1nc2ccc(Br)cc2c(=O)n1CCC`, for which the TGI in [2] is 29.3 µM; in test [3], 27.4 µM; in test [4] it was 26.2 µM; in test [5], 26.8 µM; in [6] it was 26.9 µM; in [7], 32.6 µM. This compound also yielded a TGI in test [8] of 19.8 µM.

`CCOC(=O)/N=C(\N)SCc1ccccc1`: the TGI in [1], in test [2], in [3], in [4], in test [5] and in [6] was > 100 µM each time. The TGI in test [7] and in test [8] was > 100 µM each time.
